For the experiment, the target named is human GPR40 receptor (Homo sapiens, UniProt O14842). The experiment in a line: IP1 accumulation measurements using the IPOne assay system in 1321N1 cells stably expressing human GPR40 receptor. The conditions noted are these: IP1 accumulation (HTRF), 1321N1 cells stably expressing human GPR40, 1 hour stimulation at 37° C. Format: cell-based. The protocol:
IP1 accumulation measurements using the IPOne assay system—1321N1 cells stably expressing human GPR40 receptor (Euroscreen, Belgium) are seeded 24 h before the assay in black clear-bottom collagen-coated or white 384-well plates in culture medium containing 10% FCS, 1% Na-Pyruvate and 400 μg/mL G418. IP1 is assayed according to the Manufacturer's description (Cisbio Bioassays, France). In brief, the assay is started by substitution of the culture medium by stimulation buffer (Hepes 10 mM, CaCl2 1 mM, MgCl2 0.5 mM, KCl 4.2 mM, NaCl 146 mM and glucose 5.5 mM, pH 7.4) without LiCl or with […]. Cells are stimulated for 1 hour at 37° C., 5 or 10% CO2 by addition of the compounds that are diluted in stimulation buffer containing LiCl yielding a final LiCl concentration of 50 mM. Assays are stopped by adding HTRF-conjugates (IP1-d2 and Anti-IP1 cryptate Tb) and lysis buffer, provided by the manufacturer. After an incubation time of 1 hour at room temperature plates are measured using an EnVision™, Perkin Elmer. The obtained fluorescence ratios at […] are then used to calculate the pEC50 values using GraphPad Prism 5 (Graphpad Software Inc, USA) or Assay Explorer 3.3 Software (Accelrys, Inc.) by interpolation using an IP1 reference curve and subsequent sigmoidal curve fitting allowing for a variable hill slope.
In general terms: In TR-FRET formats the signal depends on donor and acceptor labels being close together.

Sequence of human GPR40 receptor (O14842 whole entry): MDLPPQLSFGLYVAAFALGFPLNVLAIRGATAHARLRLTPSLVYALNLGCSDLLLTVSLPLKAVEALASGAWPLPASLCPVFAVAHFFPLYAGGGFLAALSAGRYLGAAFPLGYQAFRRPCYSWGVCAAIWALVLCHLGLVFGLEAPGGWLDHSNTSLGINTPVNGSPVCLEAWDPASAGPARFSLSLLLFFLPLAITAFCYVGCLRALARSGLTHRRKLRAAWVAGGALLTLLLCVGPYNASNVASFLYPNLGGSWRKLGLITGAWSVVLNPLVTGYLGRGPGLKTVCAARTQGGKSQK

Consider `O=C(O)C1CC1c1ccc(O[C@@H]2CCc3c2cccc3C(F)(F)F)cc1` (stereo in doubt) [Example 2, 2-[4-((R)-4-Trifluoromethyl-indan-1-yloxy)-phenyl]-trans-cyclopropanecarboxylic acid], for which the EC50 stood at 15 nM.

Consider `O=C(O)C1CC1c1ccc(O[C@@H]2CCc3cc(C(F)(F)F)ccc32)cc1` (stereo in doubt) [Example 3, 2-[4-((R)-5-Trifluoromethyl-indan-1-yloxy)-phenyl]-trans-cyclopropanecarboxylic acid], for which the EC50 was found to be 36 nM.

Regarding `O=C(O)C1CC1c1ccc(O[C@@H]2CCc3c(OC(F)(F)F)cccc32)cc1` (stereo in doubt) [Example 4, 2-[4-((R)-4-Trifluoromethoxy-indan-1-yloxy)-phenyl]-trans-cyclopropanecarboxylic acid], the EC50 came out at 18 nM.

In the case of `O=C(O)C1CC1c1ccc(O[C@@H]2CCc3c2cccc3C(F)(F)F)cc1F` (stereo in doubt) [Example 5, 2-[4-((R)-4-Trifluoromethyl-indan-1-yloxy)-2-fluorophenyl]-trans-cyclopropanecarboxylic acid], the EC50 was 85 nM.

Compound `O=C(O)C1CC1c1ccc(O[C@@H]2CCc3c(OC(F)(F)F)cccc32)cc1F` (stereo in doubt) [Example 6, 2-[4-((R)-4-Trifluoromethoxy-indan-1-yloxy)-2-fluorophenyl]-trans-cyclopropanecarboxylic acid] showed an EC50 of 98 nM.

On to `COc1cc(O[C@@H]2CCc3c2cccc3C(F)(F)F)ccc1C1CC1C(=O)O` (stereo in doubt) [Example 7, 2-[4-((R)-4-Trifluoromethyl-indan-1-yloxy)-2-methoxyphenyl]-trans-cyclopropanecarboxylic acid], for which the midpoint of the response, the EC50, lay at 531 nM.

For `Cc1cccc(C)c1-c1ccc(F)c2c1CC[C@H]2Oc1ccc(C2CC2C(=O)O)cc1` (stereo in doubt) [Example 33, 2-{4-[(R)-4-(2,6-Dimethyl-phenyl)-7-fluoro-indan-1-yloxy]-phenyl}-trans-cyclopropanecarboxylic acid], it took 2 nM to reach a half-maximal effect (EC50).

The compound `COc1cc(O[C@@H]2CCc3c(OC(F)(F)F)cccc32)ccc1[C@@H]1C[C@H]1C(=O)O` [Example 8] returned an EC50 of 407 nM.

In turn, `O=C(O)[C@@H]1C[C@H]1c1ccc(O[C@@H]2CCc3c2cccc3C(F)(F)F)cc1` [Example 9] returned an EC50 of 457 nM.

In turn, `O=C(O)[C@H]1C[C@@H]1c1ccc(O[C@@H]2CCc3c2cccc3C(F)(F)F)cc1` [Example 10] registered an EC50 of 13 nM.

Take `Cc1cc(OCCCS(C)(=O)=O)cc(C)c1-c1ccc(F)c2c1CC[C@H]2Oc1ccc([C@H]2C[C@@H]2C(=O)O)cc1` [Example 11]: the EC50 is 9 nM.

For the compound `Cc1cc(OCCCS(C)(=O)=O)cc(C)c1-c1ccc(F)c2c1CC[C@H]2Oc1ccc([C@@H]2C[C@H]2C(=O)O)cc1` [Example 12, (1R,2R)-2-(4-{(R)-7-Fluoro-4-[4-(3-methanesulfonyl-propoxy)-2,6-dimethyl-phenyl]-indan-1-yloxy}-phenyl)-cyclopropanecarboxylic acid], the midpoint of the response, the EC50, lay at 328 nM.

The compound `Cc1cc(OCCCS(C)(=O)=O)cc(C)c1-c1ccc(F)c2c1CC[C@H]2Oc1ccc(C2CC2C(=O)O)cc1` (stereo partly drawn) [Example 13] had an EC50 of 13 nM.

Turning to `Cc1cc(OCC(C)(C)S(C)(=O)=O)cc(C)c1-c1ccc(F)c2c1CC[C@H]2Oc1ccc([C@H]2C[C@@H]2C(=O)O)cc1` [Example 14, (1S,2S)-2-(4-{(R)-7-Fluoro-4-[4-(2-methanesulfonyl-2-methyl-propoxy)-2,6-dimethyl-phenyl]-indan-1-yloxy}-phenyl)-cyclopropanecarboxylic acid], it took 8 nM to reach a half-maximal effect (EC50).

Take `Cc1cc(C(=O)NCC(C)(C)O)cc(C)c1-c1ccc(F)c2c1CC[C@H]2Oc1ccc([C@H]2C[C@@H]2C(=O)O)cc1` [Example 15, (1S,2S)-2-(4-{(R)-7-Fluoro-4-[4-(2-hydroxy-2-methyl-propylcarbamoyl)-2,6-dimethyl-phenyl]-indan-1-yloxy}-phenyl)-cyclopropanecarboxylic acid]: it took 12 nM to reach a half-maximal effect (EC50).

Compound `O=C(O)[C@H]1C[C@@H]1c1ccc(O[C@@H]2CCc3cccc(F)c32)cc1` [Example 16, (1S,2S)-2-[4-((R)-7-Fluoro-indan-1-yloxy)-phenyl]-cyclopropanecarboxylic acid] displayed a concentration for a half-maximal effect (EC50) of 304 nM.

`Cc1cc(OCCC(C)(C)O)cc(C)c1-c1ccc(F)c2c1CC[C@H]2Oc1ccc([C@H]2C[C@@H]2C(=O)O)cc1` [Example 17, (1S,2S)-2-(4-{(R)-7-Fluoro-4-[4-(3-hydroxy-3-methyl-butoxy)-2,6-dimethyl-phenyl]-indan-1-yloxy}-phenyl)-cyclopropanecarboxylic acid] displayed an EC50 of 4 nM.

With `Cc1cc(OCC2(S(C)(=O)=O)CC2)cc(C)c1-c1ccc(F)c2c1CC[C@H]2Oc1ccc([C@H]2C[C@@H]2C(=O)O)cc1` [Example 18, (1S,2S)-2-(4-{(R)-7-Fluoro-4-[4-(1-methanesulfonyl-cyclopropylmethoxy)-2,6-dimethyl-phenyl]-indan-1-yloxy}-phenyl)-cyclopropane-carboxylic acid], the EC50 amounted to 5 nM.

For the compound `CNC(=O)c1cc(C)c(-c2ccc(F)c3c2CC[C@H]3Oc2ccc([C@H]3C[C@@H]3C(=O)O)cc2)c(C)c1` [Example 19, (1S,2S)-2-{4-[(R)-4-(2,6-Dimethyl-4-methylcarbamoyl-phenyl)-7-fluoro-indan-1-yloxy]-phenyl}-cyclopropane-carboxylic acid], the response was half-maximal at 13 nM (EC50).

For `Cc1cc(OCC2CN(S(C)(=O)=O)C2)cc(C)c1-c1ccc(F)c2c1CC[C@H]2Oc1ccc([C@H]2C[C@@H]2C(=O)O)cc1` [Example 20, (1S,2S)-2-(4-{(R)-7-Fluoro-4-[4-(1-methanesulfonyl-azetidin-3-ylmethoxy)-2,6-dimethyl-phenyl]-indan-1-yloxy}-phenyl)-cyclopropanecarboxylic acid], the EC50 turned out to be 10 nM.

Take `Cc1cc(OCC2CCS(=O)(=O)CC2)cc(C)c1-c1ccc(F)c2c1CC[C@H]2Oc1ccc([C@H]2C[C@@H]2C(=O)O)cc1` [Example 21]: the EC50 came to 7 nM.

For the compound `Cc1cc(OCCN2CCCS2(=O)=O)cc(C)c1-c1ccc(F)c2c1CC[C@H]2Oc1ccc([C@H]2C[C@@H]2C(=O)O)cc1` [Example 22], the concentration giving a half-maximal response (EC50) was 12 nM.

As to `Cc1cc(O[C@@H]2CCN(S(C)(=O)=O)C2)cc(C)c1-c1ccc(F)c2c1CC[C@H]2Oc1ccc([C@H]2C[C@@H]2C(=O)O)cc1` [Example 23], the EC50 stood at 13 nM.

As to `Cc1cc(O[C@H]2CCN(S(C)(=O)=O)C2)cc(C)c1-c1ccc(F)c2c1CC[C@H]2Oc1ccc([C@H]2C[C@@H]2C(=O)O)cc1` [Example 24], the EC50 is 18 nM.

On to `Cc1cc(O[C@@H]2CCOC2)cc(C)c1-c1ccc(F)c2c1CC[C@H]2Oc1ccc([C@H]2C[C@@H]2C(=O)O)cc1` [Example 25], for which a half-maximal response (EC50) required 13 nM.

Regarding `Cc1cc(OC(C)(C)CO)cc(C)c1-c1ccc(F)c2c1CC[C@H]2Oc1ccc([C@H]2C[C@@H]2C(=O)O)cc1` [Example 26], the EC50 is 8 nM.

With `Cc1cc(OCC(C)(C)O)cc(C)c1-c1ccc(F)c2c1CC[C@H]2Oc1ccc([C@H]2C[C@@H]2C(=O)O)cc1` [Example 27, (1S,2S)-2-(4-{(R)-7-Fluoro-4-[4-(2-hydroxy-2-methyl-propoxy)-2,6-dimethyl-phenyl]-indan-1-yloxy}-phenyl)-cyclopropanecarboxylic acid], the EC50 is 8 nM.

Regarding `Cc1cc(OC[C@H](C)CS(C)(=O)=O)cc(C)c1-c1ccc(F)c2c1CC[C@H]2Oc1ccc([C@H]2C[C@@H]2C(=O)O)cc1` [Example 28, (1S,2S)-2-(4-{(R)-7-Fluoro-4-[4-((S)-3-methanesulfonyl-2-methyl-propoxy)-2,6-dimethyl-phenyl]-indan-1-yloxy}-phenyl)-cyclopropanecarboxylic acid], the EC50 is 6 nM.

For `Cc1cc(OC[C@@H](C)CS(C)(=O)=O)cc(C)c1-c1ccc(F)c2c1CC[C@H]2Oc1ccc([C@H]2C[C@@H]2C(=O)O)cc1` [Example 29, (1S,2S)-2-(4-{(R)-7-Fluoro-4-[4-((R)-3-methanesulfonyl-2-methyl-propoxy)-2,6-dimethyl-phenyl]-indan-1-yloxy}-phenyl)-cyclopropanecarboxylic acid], the EC50 worked out at 7 nM.

Turning to `Cc1cc(OC(C)(C)C(N)=O)cc(C)c1-c1ccc(F)c2c1CC[C@H]2Oc1ccc([C@H]2C[C@@H]2C(=O)O)cc1` [Example 30, (1S,2S)-2-(4-{(R)-4-[4-(1-Carbamoyl-1-methyl-ethoxy)-2,6-dimethyl-phenyl]-7-fluoro-indan-1-yloxy}-phenyl)-cyclopropanecarboxylic acid], the midpoint of the response, the EC50, lay at 18 nM.

Compound `Cc1cc(OCCCCS(C)(=O)=O)cc(C)c1-c1ccc(F)c2c1CC[C@H]2Oc1ccc([C@H]2C[C@@H]2C(=O)O)cc1` [Example 31, (1S,2S)-2-(4-{(R)-7-Fluoro-4-[4-(4-methanesulfonyl-butoxy)-2,6-dimethyl-phenyl]-indan-1-yloxy}-phenyl)-cyclopropanecarboxylic acid] displayed an EC50 of 6 nM.

Take `Cc1cc(OCC2(CO)CC2)cc(C)c1-c1ccc(F)c2c1CC[C@H]2Oc1ccc([C@H]2C[C@@H]2C(=O)O)cc1` [Example 32]: a half-maximal response (EC50) required 4 nM.

With `Cc1cc(OCCC(C)(C)O)cc(C)c1-c1c(C#N)ccc2c1CC[C@H]2Oc1ccc([C@H]2C[C@@H]2C(=O)O)cc1` [Example 34], the EC50 turned out to be 8 nM.

Broadly, the EC50 is the midpoint of the concentration-response curve.

The values above are taken from patent publication US8633182B2, “Indanyloxyphenylcyclopropanecarboxylic acids” (Boehringer Ingelheim International GmbH, priority 2012, dated 2014).
